Assay results published in BindingDB's records for doi:10.1002/cbic.200800538 (University of Toronto, 2009).

Biological target: T1, Alpha-mannosidase 2 (Drosophila melanogaster, UniProt Q24451)
T1 sequence (Q24451 whole entry): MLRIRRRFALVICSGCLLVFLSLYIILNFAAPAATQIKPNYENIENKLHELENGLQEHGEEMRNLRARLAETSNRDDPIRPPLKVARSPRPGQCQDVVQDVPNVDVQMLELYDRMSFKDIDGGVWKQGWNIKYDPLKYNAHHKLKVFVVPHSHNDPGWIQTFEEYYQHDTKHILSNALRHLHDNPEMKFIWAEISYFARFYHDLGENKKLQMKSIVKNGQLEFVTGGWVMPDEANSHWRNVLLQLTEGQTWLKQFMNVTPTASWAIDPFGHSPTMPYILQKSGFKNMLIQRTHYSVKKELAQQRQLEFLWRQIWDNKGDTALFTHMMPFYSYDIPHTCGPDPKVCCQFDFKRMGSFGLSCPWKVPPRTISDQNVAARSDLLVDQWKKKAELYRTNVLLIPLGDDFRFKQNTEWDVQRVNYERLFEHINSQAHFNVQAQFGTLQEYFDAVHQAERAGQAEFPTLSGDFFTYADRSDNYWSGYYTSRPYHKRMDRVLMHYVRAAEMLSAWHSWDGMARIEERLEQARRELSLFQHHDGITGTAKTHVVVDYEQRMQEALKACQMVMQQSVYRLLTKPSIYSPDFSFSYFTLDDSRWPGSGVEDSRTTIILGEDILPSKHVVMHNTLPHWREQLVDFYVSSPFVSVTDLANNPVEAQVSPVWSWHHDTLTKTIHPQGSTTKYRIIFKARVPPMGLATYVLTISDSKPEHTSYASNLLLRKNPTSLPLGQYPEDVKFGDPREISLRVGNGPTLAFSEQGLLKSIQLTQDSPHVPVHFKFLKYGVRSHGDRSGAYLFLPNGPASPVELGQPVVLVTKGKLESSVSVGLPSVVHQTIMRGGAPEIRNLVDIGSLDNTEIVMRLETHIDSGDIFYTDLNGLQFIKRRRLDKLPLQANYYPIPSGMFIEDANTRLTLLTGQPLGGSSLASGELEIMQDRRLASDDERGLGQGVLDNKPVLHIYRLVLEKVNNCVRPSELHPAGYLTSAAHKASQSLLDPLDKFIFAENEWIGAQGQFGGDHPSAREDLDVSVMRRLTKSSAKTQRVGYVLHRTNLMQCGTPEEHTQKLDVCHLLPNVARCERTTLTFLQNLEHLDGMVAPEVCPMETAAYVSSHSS
Test: Inhibition Assay
Procedure: The rate of hydrolysis catalyzed by drosophila golgi alpha-mannosidase II (dGMII)and in the presence of different concentration of inhibitor was measured fluorometrically and Ki values were determined from Dixon plots.

| IC50 [µM] | Ki [µM] | Compound |
| --- | --- | --- |
| 100 |  | N[C@H]1[C@@H](O)[C@@H](O)[C@@H](O)[C@H]1O [Mannostatin analogue, 4b] |
|  | 0.15 | C[S+]([O-])[C@@H]1[C@@H](N)[C@@H](O)[C@@H](O)[C@H]1O (some centres not stated) [Mannostatin B, 2] |
